In patent US4382765A, “Method of moisturizing the skin with carbamide acid esters” (Henkel Kommanditgesellschaft auf Aktien, priority 1977, dated 1983):

How the values were obtained:
pig epidermis [1] = experiment: Elasticity measurements made on the impregnated pig epidermis; details: 24 hours, soaked 2 h in 10% aqueous solution; for mm stretch with between 5 and 30 pound loading at 75% r.h.: blank value 0; for mm stretch with between 5 and 30 pound loading at 90% r.h.: blank value 0.3-0.5
Procedure: A process for determining the equilibrium dampness which is indicative of the water retention capacity, and the determination of the water retention, rehydration and elasticity of impregnated pig epidermis are described in these tests.
(§1) Immediately after the pigs have been killed, the skin bristles are cut off by means of a shearing machine (shearing head 0.1 mm). The pigs are soaked for approximately 3 to 5 minutes in warm water of 60° C., the epidermis is subsequently peeled off and stored at -20° C. until it is used.
Stamped out pieces of pig epidermis (1×6 cm) were soaked for two hours in a 10% aqueous solution of the substance which was to be tested, and excess moisture was removed from these pieces under standarized conditions. […] The amount of stretch in mm, measured in the Hooke range at a load between 5 to 30 pund, was determined as a measure of the elasticity.

pig epidermis [2] = experiment: Water retention of impregnated pig epidermis; details: 24 hours, 23° C., soaked 2 h in 10% solution, improvement vs blank value (water only)
From the text: (§2) The favorable action of the compounds, which are to be used in accordance with the invention, with respect to their capacity for the absorption and retention of water, was established by means of the test methods described hereinafter. A process for determining the equilibrium dampness which is indicative of the water retention capacity, and the determination of the water retention, rehydration and elasticity of impregnated pig epidermis are described in these tests.
as §1
(§3) Stamped out pieces of epidermis (1×2 cm) were soaked for two hours in a 10% solution of the test substance. Excess moisture was then removed under standardized conditions by means of a small press, and the pieces were dried for 24 hours, hanging freely between 2 clamps in a 100 ml Erlenmeyer flask at 23° C., both at 30% relative humidity and 50% relative humidity (set by mixtures of sulfuric acid and water). The drying out of the impregnated test pieces to X% of the initial weight was compared with the corresponding value of the epidermis which had been soaked only in water (blank value). In Table I, the improvement in the water retention and in the rehydration as compared with the blank value is given in Δ% H2 O. The deviations in each double test amounted to a maximum of ±2 absolute units. The test was repeated if greater deviations occurred. The rehydration was determined analogously by drying the pig epidermis, which had been impregnated and from which the excess moisture had been removed, for 24 hours at 30% relative humidity, and by subsequent incubation for 24 hours at 90% relative humidity.

[3] = Determination of the equilibrium dampness; assay type: physicochemical; details: 24 hours at 23° C.; relative humidity at which neither expulsion nor retention of water is effected; lower is better
From the text: as §2
The substances (approximately 300 to 500 mg) to be tested were moistened with a defined quantity of water and were exposed for 24 hours at 23° C. to various relative atmospheric humidities (1%, 30%, 47%, 65%, 89% and 100% relative humidity). The quantity of water absorbed or desorbed was determined gravimetrically and plotted on a graph. The relative humidity at which neither expulsion nor retention of water is effected can be determined from the resultant curves. This value, which is designated as the "equilibrium dampness", is a measure of the water retention capacity of a substance. The lower the value, the more positive is the assessment of the product. Furthermore, the hygroscopicity of the substance can be read from the slope of the curve.

pig epidermis [4] = experiment: Rehydration of impregnated pig epidermis; details: dried 24 h at 30% r.h., then incubated 24 h at 90% r.h.; 10% solution; improvement vs blank value
From the text: as §2, §1, §3

Equilibrium dampness [3] [% r.h.] | Structure (SMILES) | mm stretch with between 5 and 30 pound loading at 75% r.h. (pig epidermis [1]) [mm] | mm stretch with between 5 and 30 pound loading at 90% r.h. (pig epidermis [1]) [mm] | Water Retention, % H2O after drying out at 30% r.h. (pig epidermis [2]) | Water Retention, % H2O after drying out at 50% r.h. (pig epidermis [2]) | Rehydration, Δ% water absorption at 90% r.h. (pig epidermis [4])
58 | O=C(NCCO)OCCO [Product A, N-(2-hydroxyethyl)-carbamide acid-2-hydroxyethyl ester] | 1.1 | 5.5 | 25 Δ% H2O | 26 Δ% H2O | 62 Δ% H2O
58 | CC(O)CNC(=O)OCCO (stereo not drawn) [Product B, N-(2-hydroxypropyl)-carbamide acid-2-hydroxyethyl ester] | 1.0 | 6.0 | 23 Δ% H2O | 22 Δ% H2O | 70 Δ% H2O
76 | O=C1NC(CO)(CO)CO1 [Product H, 4,4-bis-hydroxymethyl-oxazolidine-2-one] | 0.5 | 2.6 | 12 Δ% H2O | 15 Δ% H2O | 10 Δ% H2O

Continued, molecule first:

Structure (SMILES) | Equilibrium dampness [3] [% r.h.] | mm stretch with between 5 and 30 pound loading at 75% r.h. (pig epidermis [1]) [mm] | mm stretch with between 5 and 30 pound loading at 90% r.h. (pig epidermis [1]) [mm] | Water Retention, % H2O after drying out at 30% r.h. (pig epidermis [2]) | Water Retention, % H2O after drying out at 50% r.h. (pig epidermis [2]) | Rehydration, Δ% water absorption at 90% r.h. (pig epidermis [4])
CC1(C)COC(=O)N1 [Product F, 4,4-Dimethyl-oxazolidine-2-one] | 83 | 0.4 | 7.4 | 5 Δ% H2O | 7 Δ% H2O | 5 Δ% H2O
O=C1OCCN1CCO [Product I, N-(2-hydroxyethyl)-oxazolidine-2-one] | 68 | 0.8 | 6.0 | 10 Δ% H2O | 16 Δ% H2O | 16 Δ% H2O
